Source: ChEMBL document CHEMBL3046059, “Syntheses and biological activities of octahydro-1H-cyclopenta[d]pyrimidine derivatives” (2007)

test system: Aphis craccivora; assay: Insecticidal activity against Aphis craccivora (cowpea aphid) assessed as mortality at 450 ug/mL measured after 1 day; format: functional; settings: 24 h

`CC(C)N1CC([N+](=O)[O-])=C2N(CC3CCCC3N2Cc2ccc(Cl)nc2)C1` (stereo not given) was tested, and the mortality at 450 µg/mL was 88%.

test system: Aphis craccivora; assay: Insecticidal activity against Aphis craccivora (cowpea aphid) assessed as mortality at 500 ug/mL measured after 1 day; format: functional; settings: 24 h

First: CN1CC([N+](=O)[O-])=C2N(CC3CCCC3N2Cc2ccc(Cl)nc2)C1 (stereo not given)
Second: CCN1CC([N+](=O)[O-])=C2N(CC3CCCC3N2Cc2ccc(Cl)nc2)C1 (stereo not given)
The mortality at 500 µg/mL of the first is lower: 54% for the first, 90% for the second.

First: O=[N+]([O-])/C=C1\NCC2CCCC2N1Cc1ccc(Cl)nc1 (stereo not given)
Second: CC1CCC2CN/C(=C\[N+](=O)[O-])N(Cc3ccc(Cl)nc3)C12 (stereo not given)
The mortality at 500 µg/mL of the first is higher: 83% for the first, 51% for the second.

Compared with `O=[N+]([O-])/C=C1\NC2CCCC2CN1Cc1ccc(Cl)nc1` (stereo not given), `O=[N+]([O-])/C=C1\NCC2CCCC2N1Cc1cccnc1` (stereo not given) is higher in mortality at 500 µg/mL: < 59% for the first, 82% for the second.

Compared with `N#C/N=C1\NCC2CCCC2N1Cc1ccc(Cl)nc1` (stereo not given), `CCCN1CC([N+](=O)[O-])=C2N(CC3CCCC3N2Cc2ccc(Cl)nc2)C1` (stereo not given) is higher in mortality at 500 µg/mL: 38% for the first, 61% for the second.

Compared with `CCCCN1CC([N+](=O)[O-])=C2N(CC3CCCC3N2Cc2ccc(Cl)nc2)C1` (stereo not given), `O=[N+]([O-])C1=C2N(CC3CCCC3N2Cc2ccc(Cl)nc2)CN(CCO)C1` (stereo not given) is higher in mortality at 500 µg/mL: 32% for the first, 60% for the second.

For `CS/C(=N\C#N)NCC1CCCC1NCc1ccc(Cl)nc1` (stereo not given), the mortality at 500 µg/mL was 34%.

test system: Aphis craccivora; assay: Insecticidal activity against Aphis craccivora (cowpea aphid) assessed as mortality at 62.5 ug/mL measured after 1 day; format: functional; settings: 24 h

`O=[N+]([O-])/C=C1\NCCN1Cc1ccc(Cl)nc1` gave a mortality at 62.5 µg/mL of 94%.

test system: Aphis craccivora; assay: Insecticidal activity against Aphis craccivora (cowpea aphid) assessed as mortality at 125 ug/mL measured after 1 day; format: functional; settings: 24 h

Compound `CC(C)N1CC([N+](=O)[O-])=C2N(CC3CCCC3N2Cc2ccc(Cl)nc2)C1` (stereo not given) has a mortality at 125 µg/mL of 56%.

test system: Aphis craccivora; assay: Insecticidal activity against Aphis craccivora (cowpea aphid) assessed as mortality at 15.625 ug/mL measured after 1 day; format: functional; settings: 24 h

For `O=[N+]([O-])/C=C1\NCCN1Cc1ccc(Cl)nc1`, the mortality at 15.625 µg/mL was 60%.
